“And” between values parts separate entries of the source, which are not always exact repeats. Identical values can stand only once. Like-named read-outs stand apart in the source and are kept apart here.
What was measured:
[1] = system: HIV-1 X4 UG270 clinical isolate (clade D); assay: HIV-1 UG270 infection of PBMCs, p24; type: cell-based; conditions: Human immunodeficiency virus 1; PBMC, average 2 donors
NL4.3 3F11 res = assay: microbe, parasite or virus in culture; type: cell-based, HIV-1; conditions: Human immunodeficiency virus 1, TZM-bl, read-out: IC50 TZM-bl X4 NL4.3 3F11 res n = 3
AMD3100 resistant virus = assay: microbe, parasite or virus in culture; type: cell-based, HIV-1; conditions: Human immunodeficiency virus 1, MT4, read-out: IC50 MT-4 AMD-3100 res.
[2] = system: dual-tropic R5/X4 HIV-1 HE; assay: HIV-1 HE infection of PBMCs, p24; type: cell-based; conditions: Human immunodeficiency virus 1, PBMC, read-out: IC50 PBMC HE R5/X4 n = 9
HIV-1 X4 NL4.3 strain = assay: HIV-1 NL4.3 infection of PHA-stimulated PBMCs, p24 Ag ELISA; type: cell-based
[3] = system: HIV-1 CM237 clinical isolate (clade B); assay: HIV-1 CM237 infection of PBMCs, p24; type: cell-based; conditions: Human immunodeficiency virus 1; PBMC, average 2 donors
[4] = system: CXCR4-using (X4) HIV-1 clone NL4.3; assay: microbe, parasite or virus in culture; type: cell-based
NL4.3 3F11 res. = assay: microbe, parasite or virus in culture; type: cell-based, HIV-1; conditions: Human immunodeficiency virus 1, PBMC, read-out: IC50 PBMC NL4.3 3F11 res. n = 2
NL4.3 281F12 res = assay: microbe, parasite or virus in culture; type: cell-based, HIV-1; conditions: Human immunodeficiency virus 1, TZM-bl, read-out: IC50 TZM-bl X4 NL4.3 281F12 res n = 3
[5] = system: dual-tropic (R5/X4) HIV-1 strain HE; assay: microbe, parasite or virus in culture; conditions: Human immunodeficiency virus 1, MT4, read-out: IC50 MT-4 HE R5/X4 n = 3
NL4.3 281F12 res. = assay: microbe, parasite or virus in culture; type: cell-based, HIV-1; conditions: Human immunodeficiency virus 1, PBMC, read-out: IC50 PBMC NL4.3 281F12 res. n = 2
HUT-78/HIV1 IIIb = assay: HIV-1-mediated cell-cell fusion, HUT-78/IIIb with SupT1 cells; conditions: Human immunodeficiency virus 1, IIIB, read-out: IC50 syncytia formation SupT1 + HUT-78/IIIb n = 3
[6] = system: HIV-1 NL4.3 281F12-resistant virus; assay: microbe, parasite or virus in culture; type: cell-based
X4 HIV-1 NL4.3 WT = assay: TZM-bl luciferase assay, NL4.3 WT; type: cell-based; conditions: Human immunodeficiency virus 1, TZM-bl, read-out: IC50 TZM-bl X4 NL4.3 WT n = 4
HIV-1 NL4.3 (X4) = assay: HIV-1 NL4.3 infection of U87 cells; conditions: Human immunodeficiency virus 1, U-87 MG, read-out: IC50 U87 + NL 4.3 (X4) n = 3
[7] = system: HIV-1 NL4.3 3F11-resistant virus; assay: microbe, parasite or virus in culture; type: cell-based
[8] = system: HIV-1 CI#17 clinical isolate (clade B); assay: HIV-1 CI#17 infection of PBMCs, p24; type: cell-based; conditions: Human immunodeficiency virus 1; PBMC, average 2 donors
HUT-78/HIV-1 NL4.3 = assay: HIV-1-mediated cell-cell fusion, HUT-78/NL4.3 with SupT1 cells
[9] = system: dual-tropic (R5/X4) HIV-2 ROD strain; assay: microbe, parasite or virus in culture; conditions: Human immunodeficiency virus 2, MT4, read-out: IC50 MT-4 HIV-2 ROD R5/X4 n = 3
[10] = system: CXCL-12 res. HIV-1 NL4.3 variant; assay: microbe, parasite or virus in culture; type: cell-based; conditions: Human immunodeficiency virus 1, MT4, read-out: IC50 MT-4 CXCL-12 res.

**Q.** Which IC50 [1] does the source give for `c1cc(CN2CCCNCCNCCCNCC2)ccc1CN1CCCNCCNCCCNCC1` [AMD3100, plerixafor] here?
**A.** 16 nM

**Q.** What about the IC90 [1] of the same compound?
**A.** 41 nM

**Q.** What about the IC50 (NL4.3 3F11 res) of the same compound?
**A.** 915 nM

**Q.** What about the IC50 (AMD3100 resistant virus) of the same compound?
**A.** 404 nM

**Q.** And the IC50 [2]?
**A.** 26 nM

**Q.** And the IC50 (HIV-1 X4 NL4.3 strain; Human immunodeficiency virus 1, PBMC, read-out: IC50 PBMC + NL 4.3 (X4) n = 3, Table 8.1.1)?
**A.** 4.5 nM

**Q.** What about the IC50 (HIV-1 X4 NL4.3 strain; Human immunodeficiency virus 1, PBMC, read-out: IC50 PBMC NL4.3 WT n = 10, Table 8.3) of the same compound?
**A.** 4.5 nM

**Q.** And the IC50 (HIV-1 X4 NL4.3 strain; Human immunodeficiency virus 1, PBMC, read-out: IC50 PBMC NL4.3 X4 n = 10, Table 8.1.2)?
**A.** 3.3 nM

**Q.** What about the IC50 (HIV-1 X4 NL4.3 strain; Human immunodeficiency virus 1, PBMC, read-out: IC50 HIV-1 NL4.3 in PBMC) of the same compound?
**A.** 3.3 nM

**Q.** And the IC90 (HIV-1 X4 NL4.3 strain; Human immunodeficiency virus 1, PBMC, average 2 donors)?
**A.** 42 nM

**Q.** What about the IC50 (HIV-1 X4 NL4.3 strain; Human immunodeficiency virus 1, PBMC, average 2 donors, read-out: IC50 NL4.3 X4) of the same compound?
**A.** 13 nM

**Q.** What about the IC50 [3] of the same compound?
**A.** 10 nM

**Q.** And the IC90 [3]?
**A.** 24 nM

**Q.** And the IC50 ([4]; Human immunodeficiency virus 1, MT4, read-out: IC50 MT-4 + NL 4.3 (X4) n = 3)?
**A.** 4.75 nM

**Q.** What about the IC50 ([4]; Human immunodeficiency virus 1, MT4, read-out: IC50 MT-4 NL4.3 X4 n = 3) of the same compound?
**A.** 4.28 nM

**Q.** What about the IC50 ([4]; Human immunodeficiency virus 1, MT4, read-out: IC50 MT-4 NL4.3 wt) of the same compound?
**A.** 4.28 nM

**Q.** What about the IC50 ([4]; Human immunodeficiency virus 1, MT4, read-out: IC50 X4 NL4.3 strain in MT-4 cells) of the same compound?
**A.** 6.26 nM

**Q.** What about the IC50 (NL4.3 3F11 res.) of the same compound?
**A.** 20 nM

**Q.** And the IC50 (NL4.3 281F12 res)?
**A.** 4920 nM

**Q.** What about the IC50 [5] of the same compound?
**A.** 3.9 nM

**Q.** What about the IC50 (NL4.3 281F12 res.) of the same compound?
**A.** 57 nM

**Q.** And the IC50 (HUT-78/HIV1 IIIb)?
**A.** 22000 nM

**Q.** And the IC50 ([6]; Human immunodeficiency virus 1, MT4, read-out: IC50 MT-4 281F12 res.)?
**A.** 399 nM

**Q.** And the IC50 ([6]; Human immunodeficiency virus 1, MT4, read-out: IC50 against HIV-1 NL4.3 281F12res virus)?
**A.** 400 nM and 0.317 µg/mL

**Q.** And the IC50 (X4 HIV-1 NL4.3 WT)?
**A.** 411 nM

**Q.** And the IC50 (HIV-1 NL4.3 (X4))?
**A.** 10 nM

**Q.** What about the IC50 ([7]; Human immunodeficiency virus 1, MT4, read-out: IC50 MT-4 3F11 res.) of the same compound?
**A.** 18.5 nM

**Q.** What about the IC50 ([7]; Human immunodeficiency virus 1, MT4, read-out: IC50 against HIV-1 NL4.3 3F11res virus) of the same compound?
**A.** 18 nM and 0.014 µg/mL

**Q.** What about the IC50 [8] of the same compound?
**A.** 22 nM

**Q.** What about the IC90 [8] of the same compound?
**A.** 47 nM

**Q.** And the IC50 (HUT-78/HIV-1 NL4.3; Human immunodeficiency virus 1, HuT78, read-out: IC50 cell-cell fusion)?
**A.** 1100 nM

**Q.** And the IC50 (HUT-78/HIV-1 NL4.3; Human immunodeficiency virus 1, read-out: IC50 syncytia formation SupT1 + HUT-78/NL4.3 n = 4)?
**A.** 1120 nM

**Q.** What about the IC50 [9] of the same compound?
**A.** 21.1 nM

**Q.** What about the IC50 [10] of the same compound?
**A.** 50.3 nM
